pIC50: −log10 of the molar value.
target: T1, Polyunsaturated fatty acid 5-lipoxygenase (Homo sapiens, UniProt P09917); assay: The compound was tested in vitro for inhibition against 5-lipoxygenase in intact human neutrophils
T1 sequence (P09917 whole entry): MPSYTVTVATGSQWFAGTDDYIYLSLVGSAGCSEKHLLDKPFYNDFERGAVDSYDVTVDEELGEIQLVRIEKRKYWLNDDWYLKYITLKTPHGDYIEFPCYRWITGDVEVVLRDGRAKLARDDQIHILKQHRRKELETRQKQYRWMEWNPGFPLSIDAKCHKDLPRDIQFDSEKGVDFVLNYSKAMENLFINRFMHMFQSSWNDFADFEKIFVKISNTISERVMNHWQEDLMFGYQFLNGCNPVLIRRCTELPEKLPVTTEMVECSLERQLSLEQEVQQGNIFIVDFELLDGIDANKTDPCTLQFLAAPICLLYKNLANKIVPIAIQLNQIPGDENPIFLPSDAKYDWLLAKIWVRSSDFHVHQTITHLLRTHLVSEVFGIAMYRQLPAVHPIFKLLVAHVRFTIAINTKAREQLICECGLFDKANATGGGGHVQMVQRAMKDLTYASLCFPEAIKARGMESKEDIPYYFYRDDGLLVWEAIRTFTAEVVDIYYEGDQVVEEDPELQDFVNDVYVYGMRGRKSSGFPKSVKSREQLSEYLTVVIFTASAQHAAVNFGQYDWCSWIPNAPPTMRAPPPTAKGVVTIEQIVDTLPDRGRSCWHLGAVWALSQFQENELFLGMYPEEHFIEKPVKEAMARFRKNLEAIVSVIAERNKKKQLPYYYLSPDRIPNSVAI

In order of rising pIC50:
1. NC(=O)N(O)[C@H]1C[C@H](c2cc3ccccc3s2)C1  6.42
2. NC(=O)N(O)[C@H]1C[C@@H](c2cccc(Oc3ccc(F)cc3)c2)C1  6.77
3. CC(/C=C/c1cccc(Oc2ccc(F)cc2)c1)N(O)C(N)=O (stereo not drawn)  7.10
